Results taken from US20260273078A1, “AN INJECTABLE DELIVERY SYSTEM FOR LONG-ACTING ADMINISTRATION OF DRUGS” (priority 2023, published 2026).
Entries after “also recorded” stand apart in the source; their conditions may differ.

Key:
[1] = target: proteinase K (Parengyodontium album, UniProt P06873); test: Biostability after incubation with proteinase K over 28 days; type: in vitro ADME; conditions: up to 28 days
Source text: L-peptide NapFFKY(p)G-OH (small circle) and D-peptide NapffkY(p)G-OH (upright triangle) are peptide-only controls that also form hydrogels in response to phosphatase enzymes.

[2] = tested on: HIV; conditions: cited from earlier work

Sequence of proteinase K (P06873 106-384): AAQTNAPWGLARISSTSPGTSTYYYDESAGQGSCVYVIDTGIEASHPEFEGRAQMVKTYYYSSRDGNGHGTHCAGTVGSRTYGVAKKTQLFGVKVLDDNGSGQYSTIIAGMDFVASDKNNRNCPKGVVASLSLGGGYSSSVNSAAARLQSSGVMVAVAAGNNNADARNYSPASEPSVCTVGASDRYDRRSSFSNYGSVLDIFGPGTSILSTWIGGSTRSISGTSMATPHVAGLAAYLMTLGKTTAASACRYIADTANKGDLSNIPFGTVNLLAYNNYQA

Row | Compound | Biostability in the presence of proteinase-K (in words) [1] | IC50 range [2] [µg/mL]
1 | NCCCC[C@H](NC(=O)[C@H](Cc1ccccc1)NC(=O)[C@H](Cc1ccccc1)NC(=O)Cc1ccc2ccccc2c1)C(=O)N[C@@H](Cc1ccc(OP(=O)(O)O)cc1)C(=O)NCC(=O)O [L-peptide, NapFFKY(p)G-OH, reference compound] | degrades rapidly, within hours | –
2 | (NPhe)4GGGGKY(p)-OH [PP4G L-peptide variant] | breaks down between days; also recorded: breaks down within days | –
3 | NapffkY(p)G-OH [D-peptides, reference compound] | significant stability after 28 days | –
4 | Cc1cn([C@H]2C[C@H](N=[N+]=[N-])[C@@H](CO)O2)c(=O)[nH]c1=O [zidovudine] | – | 0.03 to 0.13
